# Data published in US20250034139A1, “AMINE COMPOUNDS HAVING ANTI-INFLAMMATORY, ANTIFUNGAL, ANTIPARASITIC, AND ANTICANCER ACTIVITY” (PHARMA CINQ, LLC, priority 2013, published 2025).
# How the values were obtained:
# [1] = system: 4T1 murine breast cancer cells; assay: Example S: in vitro anticancer screen, 4T1 cells, Wst1; type: cell-based, mouse; details: Mus musculus, 4T1, 18 h, 18 hr, Wst1; for viability at 1 µM: read-out: 4T1 1 μM, percent of cancer cell survival relative to vehicle treated cells; for viability at 5 µM: read-out: 4T1 5 μM, percent of cancer cell survival relative to vehicle treated cells
# Description: Anticancer activity against 4T1 murine breast cancer cells cancer cells was assessed in vitro by seeding 1×10^4 cells/well in flat bottom culture plates, then treating with selected 1 μM or 5 μM concentrations of compounds for 18 hr after plating. Then 10 μL of Wst1 dye reagent, a tetrazolium dye indicator for […], was added/well and incubated approximately 2 hr before being assayed on the Biotek EL800 Universal microplate reader (450 nm, reference 630 nm).
# (§1) Numerical values in the Table 37 represent percent of cancer cell survival relative to vehicle treated cells at the indicated concentrations, with values under 100 indicating anticancer cytotoxic activity at the drugs concentrations tested.
# [2] = system: PC3 human prostate cancer cells; assay: Example S: in vitro anticancer screen, PC-3 cells, Wst1; type: cell-based; details: Homo sapiens, PC-3, approximately 20 hours, Wst1, read-out: PC-3, percent of cancer cell survival relative to vehicle treated cells
# Description: Activity against PC3 human prostate cancer cells in vitro was assessed by a similar method. PC-3 prostate cancer cells were plated at 2×10^4 cells/well in 96 well flat bottom tissue culture plates, and incubated for approximately 20 hours with vehicle or test compounds at concentrations of 0.4, 0.5 or 2.5 μM as indicated for specific compounds in the right-hand column of Table 37. A 1/10th volume of Wst1 dye was added/well and incubated for two hours in the cell culture incubator. Samples were analyzed in triplicate on an EL800 Universal Microplate Reader at 450 nm, reference wavelength 630 nm.
# as §1
# [3] = system: PC-3 prostate cancer cells; assay: Example T: sensitisation of PC-3 cells to doxorubicin, oxaliplatin, paclitaxel or vincristine, Wst1; type: cell-based, human; details: PC-3 cells, 72 hours; for viability at 2.5 µM / viability at 5 µM: Homo sapiens, Wst1, vehicle = 100, read-out: No Chemo: percent cell survival; for viability at 2.5 µM: compound 2.5 μM alone; for Doxorubicin 3.5 μM: percent cell survival / Oxaliplatin 100 μM: percent cell survival / Paclitaxel 50 μM: percent cell survival / Vincristine 100 nM: percent cell survival: chemotherapy agent alone normalized to 100%; for viability at 5 µM: compound 5 μM alone
# [4] = compound 2.5 μM + doxorubicin 3.5 μM
# [5] = compound 2.5 μM + oxaliplatin 100 μM
# [6] = compound 2.5 μM + paclitaxel 50 μM
# [7] = compound 2.5 μM + vincristine 100 nM
# [8] = compound 5 μM + doxorubicin 3.5 μM
# [9] = compound 5 μM + oxaliplatin 100 μM
# [10] = compound 5 μM + paclitaxel 50 μM
# [11] = compound 5 μM + vincristine 100 nM
Compound,viability at 1 µM [1] [%],viability at 5 µM [1] [%],viability at 2.5 µM [2] [%],viability at 2.5 µM [3] [%],"Doxorubicin 3.5 μM: percent cell survival [3, 4] [%]","Oxaliplatin 100 μM: percent cell survival [3, 5] [%]","Paclitaxel 50 μM: percent cell survival [3, 6] [%]","Vincristine 100 nM: percent cell survival [3, 7] [%]",viability at 5 µM [2] [%],viability at 5 µM [3] [%],"Doxorubicin 3.5 μM: percent cell survival [3, 8] [%]","Oxaliplatin 100 μM: percent cell survival [3, 9] [%]","Paclitaxel 50 μM: percent cell survival [3, 10] [%]","Vincristine 100 nM: percent cell survival [3, 11] [%]"
"CCCCCCCCCCCCn1cnc2cnc3ccccc3c21 [FY, 1-Dodecyl-1H-imidazo[4,5-c]quinoline]",95.2,26.8,36,36,74.6,91.5,91,80.1,–,–,–,–,–,–
"CCCCCCOc1cccc(OCCCn2cnc3cnc4ccccc4c32)c1 [GD, 1-{3-[3-(Hexyloxy)phenoxy]propyl}-1H-imidazo[4,5-c]quinoline]",–,–,24.3,24.3,39.5,26.7,27,23.5,–,–,–,–,–,–
"CCOCc1nc2cnc3ccccc3c2n1CC(C)(C)O [FB, 1-[2-(Ethoxymethyl)-1H-imidazo[4,5-c]quinolin-1-yl]-2-methylpropan-2-ol]",92.7,90,97.7,97.7,89.1,95.5,93.2,98.6,–,–,–,–,–,–
"CCCCCCCCCCCCCCCCn1cnc2c(N)nc3ccccc3c21 [FF, 1-Hexadecyl-1H-imidazo[4,5-c]quinolin-4-amine]",103,102,–,–,–,–,–,–,93,93,90.7,95.2,136.1,110.1
"CCCCCCCCCCCCOCCn1cnc2c(N(C)C)nc3ccccc3c21 [FH, 1-[2-(Dodecyloxy)ethyl]-N,N-dimethyl-1H-imidazo[4,5-c]quinolin-4-amine]",101,102,–,–,–,–,–,–,89,89,79.6,82.3,131.8,114.9
"CCCCCCCCCCCCCCCc1nc2c(O)nc3ccccc3c2n1CC(C)C [FD, 1-Isobutyl-2-pentadecyl-1H-imidazo[4,5-c]quinolin-4-ol]",106,112,–,–,–,–,–,–,112,112,101,85.3,95.6,98.7
"CCCCCCCCCCOCCCn1cnc2cnc3ccccc3c21 [FZ, 1-[3-(Decyloxy)propyl]-1H-imidazo[4,5-c]quinoline]",91.4,56.6,–,–,–,–,–,–,32.7,32.7,39.6,67.7,114.8,38.5
"CCCCCCCCCCCCCCCCn1cnc2cnc3ccccc3c21 [FE, 1-Hexadecyl-1H-imidazo[4,5-c]quinoline]",108,31.7,–,–,–,–,–,–,34.2,34.2,46.8,67.6,113.7,37.3
"COCCCCCNc1ccnc2ccccc12 [CM, N-(5-Methoxypentyl)quinolin-4-amine]",104,221,–,–,–,–,–,–,37.8,37.8,72.6,78.1,74.8,81.3
